The values that follow come from ChEMBL document CHEMBL3120120, “Toxicological and pharmacological evaluation, antioxidant, ADMET and molecular modeling of selected racemic chromenotacrines {11-amino-12-aryl-8,9,10,12-tetrahydro-7H-chromeno[2,3-b]quinolin-3-ols} for the potential prevention and treatment of Alzheimer's disease” (Eur J Med Chem, 2014).

Activity calls are given as the source filed them. The calls are words filed in the database; no cut-off is given here.

Data set [1] has as its system Glycine max. Description: Inhibition of soybean lipoxygenase assessed as conversion of sodium linoleate to 13-hydroperoxylinoleic acid at 100 uM by UV absorbance assay.
The nature of data set [2]: in vitro. The following applies: human, HepG2 cells.
Description: Hepatotoxicity against human HepG2 cells assessed as cell viability at 300 uM after 24 hrs by MTT assay relative to control
The test system of data set [3] is HepG2. Description: Hepatotoxicity against human HepG2 cells assessed as cell viability after 24 hrs by MTT assay. As to conditions: hepg2, 24 h. The format is toxicity, cell-based. (Tetrazolium assays rely on reduction of a dye to a coloured formazan, in cell work by metabolically active cells.)
Data set [4] is described as follows: in vitro. The following applies: human, HepG2 cells. This is another data set of the same source.
Description: Hepatotoxicity against human HepG2 cells assessed as cell viability at 1 uM after 24 hrs by MTT assay relative to control
The nature of data set [5]: in vitro. As to conditions: human, HepG2 cells. The source holds these as a separate data set.
Description: Hepatotoxicity against human HepG2 cells assessed as cell viability at 100 uM after 24 hrs by MTT assay relative to control
A short description of data set [6]: in vitro. The following applies: human, HepG2 cells. The source holds these as a separate data set.
Description: Hepatotoxicity against human HepG2 cells assessed as cell viability at 10 uM after 24 hrs by MTT assay relative to control
Data set [7] concerns the target T1, Acetylcholinesterase (Electrophorus electricus, UniProt O42275).
Description: Inhibition of electric eel AchE using acetylcholine as substrate preincubated for 15 mins followed by substrate addition measured for 5 mins by Ellman method
Data set [8] in a line: in vitro. The following applies: human, HepG2 cells. This is another data set of the same source.
Description: Hepatotoxicity against human HepG2 cells assessed as cell viability at 30 uM after 24 hrs by MTT assay relative to control
Data set [9] in a line: in vitro. As to conditions: human, HepG2 cells. This is another data set of the same source.
Description: Hepatotoxicity against human HepG2 cells assessed as cell viability at 3 uM after 24 hrs by MTT assay relative to control
Data set [10] relates to SH-SY5Y. As to the kind of experiment: Antioxidant activity in human SH-SY5Y cells assessed as decrease in H2O2-induced MDA level after 8 hrs by TBARS assay. The format is functional, cell-based.
Data set [11] relates to HepG2. Description: Hepatotoxicity against human HepG2 cells assessed as LDH release at 1 to 300 uM. The format is toxicity, cell-based. As to conditions: hepg2, 300 µM. For orientation: LDH leaks from cells whose membrane has failed.
Data set [12] concerns Cerebral cortex neuron. Description: Neuroprotective activity in Wistar rat embryo primary cortical neuron using DEVD-AMC as flurogenic substrate assessed as inhibition of oligomycin A-induced cell death by measuring caspase 3 activity at 25 to 50 uM by spectroflurometric analysis in presence of serum relative to control. The format is functional, cell-based.
Data set [13] is described as follows: Toxicity in Wistar rat embryo primary cortical neuron assessed as increase in ROS formation at >25 uM. As to conditions: cerebral cortex neuron. The format is cell-based.
Data set [14] in a line: Neuroprotective activity in Wistar rat embryo primary cortical neuron assessed as reduction of oligomycin A-induced cell death by measuring cell viability at 100 uM after 24 hrs by XTT assay relative to control. The format is functional, Cerebral cortex neuron.
Data set [15] concerns the target T1, Acetylcholinesterase. Description: Noncompetitive inhibition of electric eel AchE using acetylcholine as substrate preincubated for 15 mins followed by substrate addition measured for 5 mins by Dixon plot analysis.
Data set [16] is described as follows: Neuroprotective activity in Wistar rat embryo primary cortical neuron assessed as reduction of oligomycin A-induced cell death by measuring cell viability after 24 hrs by XTT assay relative to control. The format is functional, cell-based. As to conditions: Cerebral cortex neuron.
A short description of data set [17]: Neuroprotective activity in Wistar rat embryo primary cortical neuron assessed as reduction of SNP-induced cell death by measuring cell viability at 100 uM after 24 hrs by XTT assay relative to control. The format is functional, Cerebral cortex neuron.
Data set [18] in a line: Neuroprotective activity in Wistar rat embryo primary cortical neuron assessed as reversal of SNP-induced ROS formation at 10 uM after 24 hrs by spectrofluorometric analysis relative to control. The format is functional, Cerebral cortex neuron.
Data set [19] is described as follows: Neuroprotective activity in Wistar rat embryo primary cortical neuron assessed as reversal of SNP-induced ROS formation at 25 uM after 24 hrs by spectrofluorometric analysis relative to control. The format is functional, Cerebral cortex neuron.
A short description of data set [20]: Neuroprotective activity in Wistar rat embryo primary cortical neuron using DEVD-AMC as flurogenic substrate assessed as inhibition of SNP-induced cell necrosis by measuring caspase 3 activity at 25 to 50 uM by spectroflurometric analysis relative to control. The format is functional, Cerebral cortex neuron.
A short description of data set [21]: Antioxidant activity against AAPH-induced lipid peroxidation assessed as inhibition of conjugated diene hydroperoxide production at 100 uM. The format is functional.
Data set [22] has as its target Acetylcholinesterase (Electrophorus electricus) (UniProt O42275). As to the kind of experiment: Noncompetitive inhibition of electric eel AchE using acetylcholine as substrate at 0.01 to 10 uM preincubated for 15 mins followed by substrate addition measured for 5 mins by Lineweaver-Burk plot analysis.
Data set [23] is described as follows: Neuroprotective activity in Wistar rat embryo primary cortical neuron assessed as reversal of SNP-induced ROS formation at 1 uM after 24 hrs by spectrofluorometric analysis relative to control. The format is functional, Cerebral cortex neuron.
A short description of data set [24]: Neuroprotective activity in Wistar rat embryo primary cortical neuron assessed as reduction of SNP-induced cell death by measuring cell viability after 24 hrs by XTT assay relative to control. The format is functional, cell-based. The following applies: Cerebral cortex neuron.
A short description of data set [25]: Neuroprotective activity in Wistar rat embryo primary cortical neuron using DEVD-AMC as flurogenic substrate assessed as inhibition of oligomycin A-induced cell death by measuring caspase 3 activity at 25 to 50 uM by spectroflurometric analysis relative to control. The format is functional, Cerebral cortex neuron.
Data set [26] concerns Cerebral cortex neuron. As to the kind of experiment: Neuroprotective activity in Wistar rat embryo primary cortical neuron using DEVD-AMC as flurogenic substrate assessed as inhibition of SNP-induced cell necrosis by measuring caspase 3 activity at 25 to 50 uM by spectroflurometric analysis in presence of serum relative to control. The format is functional, cell-based.

T1 sequence (O42275 whole entry): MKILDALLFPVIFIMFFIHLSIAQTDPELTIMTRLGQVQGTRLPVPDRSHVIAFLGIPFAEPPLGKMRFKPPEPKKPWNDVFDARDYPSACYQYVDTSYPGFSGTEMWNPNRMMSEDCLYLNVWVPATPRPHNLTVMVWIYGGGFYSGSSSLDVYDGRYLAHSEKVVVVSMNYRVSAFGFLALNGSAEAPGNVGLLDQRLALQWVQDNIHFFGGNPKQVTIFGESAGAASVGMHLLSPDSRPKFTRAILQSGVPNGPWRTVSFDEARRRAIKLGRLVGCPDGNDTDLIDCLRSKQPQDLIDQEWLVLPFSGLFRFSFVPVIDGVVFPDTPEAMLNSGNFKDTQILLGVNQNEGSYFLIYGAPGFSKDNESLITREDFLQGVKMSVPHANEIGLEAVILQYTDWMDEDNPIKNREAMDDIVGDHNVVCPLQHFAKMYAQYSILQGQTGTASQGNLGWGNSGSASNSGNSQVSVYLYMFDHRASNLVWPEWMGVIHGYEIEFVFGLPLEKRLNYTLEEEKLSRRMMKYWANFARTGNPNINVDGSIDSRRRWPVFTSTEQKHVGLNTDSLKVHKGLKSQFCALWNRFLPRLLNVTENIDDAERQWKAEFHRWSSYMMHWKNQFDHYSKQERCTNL
Sequence of Acetylcholinesterase (Electrophorus electricus) (O42275 24-633 limits assumed): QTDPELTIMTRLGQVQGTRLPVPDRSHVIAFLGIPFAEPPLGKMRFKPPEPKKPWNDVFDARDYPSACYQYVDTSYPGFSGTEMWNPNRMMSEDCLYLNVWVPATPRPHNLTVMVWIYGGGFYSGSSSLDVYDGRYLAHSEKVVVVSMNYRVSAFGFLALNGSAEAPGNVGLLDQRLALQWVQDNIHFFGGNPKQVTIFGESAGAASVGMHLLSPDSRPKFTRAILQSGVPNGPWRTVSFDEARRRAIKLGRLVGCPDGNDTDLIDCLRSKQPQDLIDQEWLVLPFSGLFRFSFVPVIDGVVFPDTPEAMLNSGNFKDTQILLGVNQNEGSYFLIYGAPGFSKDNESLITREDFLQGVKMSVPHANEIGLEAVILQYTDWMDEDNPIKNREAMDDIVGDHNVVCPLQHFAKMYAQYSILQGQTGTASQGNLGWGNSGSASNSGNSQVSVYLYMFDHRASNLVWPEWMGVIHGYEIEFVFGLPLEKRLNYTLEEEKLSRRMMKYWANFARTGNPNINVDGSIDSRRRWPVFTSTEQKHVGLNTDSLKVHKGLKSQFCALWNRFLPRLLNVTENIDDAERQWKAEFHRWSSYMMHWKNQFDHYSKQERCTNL

What is called inhibition is the percentage by which the read-out fell short of the control. Turning to `CC(Cc1ccc(O)c(O)c1)C(C)Cc1ccc(O)c(O)c1` (stereo unspecified), in data set [1], the inhibition stood at 84%.
In general, viability refers to a read-out of living cells in per cent, often relative to untreated cells. By IC50 is commonly meant the point on the concentration scale where inhibition reaches its midpoint. As for `COc1ccc(C2c3ccc(O)cc3Oc3nc4c(c(N)c32)CCCC4)cc1` (racemic), in [2], the viability at 24 h, 300 µM turned out to be 75.5%. Moreover, the Activity result in data set [3] is reported as “Dose-dependent effect”. In addition, the viability at 24 h, 1 µM in [4] came out at 97.3%. Further, the viability at 24 h, 100 µM in [5] was found to be 85.9%. In addition, the viability at 24 h, 10 µM in [6] turned out to be 94.1%. The compound further had an IC50 in data set [7] of 530 nM. For the same compound, the viability at 24 h, 30 µM in [8] stood at 95%. Moreover, the viability at 24 h, 3 µM in [9] was 96.8%.
By Ki is commonly meant the dissociation constant of the complex between target and ligand, obtained from inhibition or displacement. Usually EC50 stands for the midpoint of the concentration-response curve. With `COc1cc(C2c3ccc(O)cc3Oc3nc4c(c(N)c32)CCCC4)cc(OC)c1OC` (racemic), the viability at 24 h, 300 µM in [2] amounted to 103%. For the same compound, the Activity entry in data set [10] is “Dose-dependent effect”; in [11], “Non-toxic”; in data set [3] it was “Dose-dependent effect”; in data set [13] it was “Toxic”; in data set [14], 81.08%; in data set [17] it was 148.12%. The inhibition entry in data set [12], in [22] and in [26] was “Active” throughout. Further, the viability at 24 h, 1 µM in [4] came to 102%. Further, the inhibitory constant (Ki) in data set [15] came out at 47 nM. Further, the EC50 in [16] was 1110 nM; in [24] it was 3470 nM. Also, the “fold change (FC)” value in data set [18] is on record as 1.93; in data set [19], 1.81; in [20] it was 3.43; in data set [23], 2.31; in [25], 1.83. The viability at 24 h, 100 µM in data set [5] worked out at 98.3%. Also, the viability at 24 h, 10 µM in [6] is 101%. The figures for the inhibition in [21] and in data set [1] were 85% and 18%, respectively. Besides, in data set [7], the IC50 came to 41 nM. In addition, the viability at 24 h, 30 µM in [8] came to 100%. Also, in [9], the viability at 24 h, 3 µM worked out at 98.7%.
Turning to `Nc1c2c(nc3c1C(c1ccc(F)cc1)c1ccc(O)cc1O3)CCCC2` (racemic), the viability at 24 h, 300 µM in data set [2] amounted to 50.1%. In addition, the Activity result in [3] was “Dose-dependent effect”. In addition, the viability at 24 h, 1 µM in data set [4] worked out at 91%. Also, the viability at 24 h, 100 µM in [5] stood at 55.5%. The viability at 24 h, 10 µM in [6] came out at 62.8%. Besides, it took 103 nM to reach half-maximal inhibition in data set [7] (IC50). Further, in [8], the viability at 24 h, 30 µM came to 55.7%. Also, in data set [9], the viability at 24 h, 3 µM was 75.1%.
Take `Cc1c(C)c2c(c(C)c1O)CCC(C)(C(=O)O)O2` (stereo unspecified): the inhibition in data set [21] stood at 63%.
As for `Nc1c2c(nc3c1C(c1ccc(Br)cc1)c1ccc(O)cc1O3)CCCC2` (racemic), the viability at 24 h, 300 µM in [2] stood at 61.5%. In addition, the Activity entry in data set [3] is given as “Dose-dependent effect”. In addition, the viability at 24 h, 1 µM in data set [4] was found to be 99%. In addition, the viability at 24 h, 100 µM in [5] is 74.4%. For the same compound, the viability at 24 h, 10 µM in data set [6] worked out at 84.8%. For the same compound, in data set [7], the midpoint of inhibition, the IC50, lay at 7 nM. Besides, in data set [8], the viability at 24 h, 30 µM worked out at 76.9%. Besides, the viability at 24 h, 3 µM in data set [9] amounted to 87.4%.
On to `Nc1c2c(nc3c1C(c1ccccc1)c1ccc(O)cc1O3)CCCC2` (racemic), for which the viability at 24 h, 300 µM in data set [2] amounted to 49.6%. Further, in [3], the Activity entry is given as “Dose-dependent effect”. Moreover, the viability at 24 h, 1 µM in data set [4] worked out at 99.5%. Moreover, the viability at 24 h, 100 µM in data set [5] stood at 55.8%. The viability at 24 h, 10 µM in data set [6] was 66.2%. In [7], this compound came in with a 50% inhibitory concentration (IC50) of 550 nM. For the same compound, the viability at 24 h, 30 µM in [8] amounted to 62.4%. Also, in data set [9], the viability at 24 h, 3 µM was 67.4%.
As to `Cc1ccc(C2c3ccc(O)cc3Oc3nc4c(c(N)c32)CCCC4)cc1` (racemic), the viability at 24 h, 300 µM in data set [2] is 47.9%. For the same compound, in data set [3], the Activity entry is “Dose-dependent effect”. Besides, the viability at 24 h, 1 µM in data set [4] turned out to be 96.9%. Moreover, the viability at 24 h, 100 µM in data set [5] amounted to 71.7%. In [6], the viability at 24 h, 10 µM was determined as 85.6%. Besides, in [7], the half-inhibitory concentration (IC50) turned out to be 65 nM. For the same compound, the viability at 24 h, 30 µM in data set [8] amounted to 74.3%. The viability at 24 h, 3 µM in data set [9] came to 89.5%.
With `CN(C)c1ccc(C2c3ccc(O)cc3Oc3nc4c(c(N)c32)CCCC4)cc1` (racemic), the viability at 24 h, 300 µM in [2] turned out to be 80.3%. For the same compound, in [3], the Activity entry is “Dose-dependent effect”. In addition, the viability at 24 h, 1 µM in data set [4] stood at 99%. In addition, in data set [5], the viability at 24 h, 100 µM stood at 85.5%. In [6], the viability at 24 h, 10 µM amounted to 86.1%. In data set [7], the IC50 came to 290 nM. Besides, in data set [8], the viability at 24 h, 30 µM amounted to 85.5%. In addition, the viability at 24 h, 3 µM in data set [9] was found to be 88.5%.
